Measurements as given in patent US10526358B2, “Crystalline forms” (GRUNENTHAL GMBH, priority 2016, dated 2020).

Experiments:
[1] = apparent water solubility at room temperature; assay type: physicochemical
[2] = FDA SBA; cited from earlier work
[3] = FDA SBA; cited from earlier work; remark: listed apart in the source
[4] = cited from earlier work
[5] = in vivo; cited from earlier work

O=P(O)(O)C(O)(Cn1ccnc1)P(=O)(O)O [Zoledronic acid, (1-hydroxy-2-imidazol-1-yl-1-phosphono-ethyl)phosphonic acid]
apparent water solubility [1]: few
permeability in the GI tract [2]: poor permeability
oral bioavailability [3]: approximately 1%
solubility in 0.1 N HCl solution ([4]; 0.1 N HCl): sparingly soluble
solubility in 0.1 N NaOH ([4]; 0.1 N NaOH): freely soluble
solubility in various organic solvents ([4]; various organic solvents): practically insoluble
solubility in water ([4]; water): sparingly soluble
gastric and intestinal irritations [5]: severe gastric and intestinal irritations
